Entries after “also recorded” stand apart in the source; their conditions may differ. Read-outs that look alike come from different tables or passages of the source.
Tests used:
Dopamine transporter = Dopamine transporter (Homo sapiens, UniProt Q01959); assay: Dopamine transporter uptake (h); format: cell-based
dopamine transporter (h) = molecular target: T1, dopamine transporter (h) (Homo sapiens, UniProt Q01959); assay: dopamine transporter (h) binding, [3H]BTCP; conditions: at 10 μM; table calls these values “No Binding”
T1 construct: expressed in transfected cells; host or cells: CHO cells
T1 sequence (Q01959 whole entry): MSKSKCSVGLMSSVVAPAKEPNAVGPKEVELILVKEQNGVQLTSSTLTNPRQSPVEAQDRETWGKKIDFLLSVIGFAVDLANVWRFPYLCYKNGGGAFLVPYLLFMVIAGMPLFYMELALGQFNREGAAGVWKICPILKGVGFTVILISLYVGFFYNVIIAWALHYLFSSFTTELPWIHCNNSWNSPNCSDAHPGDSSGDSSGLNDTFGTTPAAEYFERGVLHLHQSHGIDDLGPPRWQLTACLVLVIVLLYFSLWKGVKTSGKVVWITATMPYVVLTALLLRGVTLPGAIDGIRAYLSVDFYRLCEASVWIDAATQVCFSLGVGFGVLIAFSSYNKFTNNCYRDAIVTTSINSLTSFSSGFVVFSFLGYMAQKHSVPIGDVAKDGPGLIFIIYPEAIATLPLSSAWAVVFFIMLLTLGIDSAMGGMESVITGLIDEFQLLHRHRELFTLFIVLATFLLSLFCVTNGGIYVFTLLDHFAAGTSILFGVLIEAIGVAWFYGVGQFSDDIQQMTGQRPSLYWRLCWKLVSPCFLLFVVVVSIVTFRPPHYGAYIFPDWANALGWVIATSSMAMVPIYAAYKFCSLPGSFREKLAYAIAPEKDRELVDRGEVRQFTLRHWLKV

MAO-A = molecular target: T2, MAO-A (Homo sapiens, UniProt P21397); assay: Recombinant human MAO-A in vitro metabolism; format: in vitro ADME; conditions: for half-life at 1 µM: human, recombinant human MAO-A
T2 construct: purchased XenoTech (first series); Corning (second series) Corning 456283
T2 sequence (P21397 1-527): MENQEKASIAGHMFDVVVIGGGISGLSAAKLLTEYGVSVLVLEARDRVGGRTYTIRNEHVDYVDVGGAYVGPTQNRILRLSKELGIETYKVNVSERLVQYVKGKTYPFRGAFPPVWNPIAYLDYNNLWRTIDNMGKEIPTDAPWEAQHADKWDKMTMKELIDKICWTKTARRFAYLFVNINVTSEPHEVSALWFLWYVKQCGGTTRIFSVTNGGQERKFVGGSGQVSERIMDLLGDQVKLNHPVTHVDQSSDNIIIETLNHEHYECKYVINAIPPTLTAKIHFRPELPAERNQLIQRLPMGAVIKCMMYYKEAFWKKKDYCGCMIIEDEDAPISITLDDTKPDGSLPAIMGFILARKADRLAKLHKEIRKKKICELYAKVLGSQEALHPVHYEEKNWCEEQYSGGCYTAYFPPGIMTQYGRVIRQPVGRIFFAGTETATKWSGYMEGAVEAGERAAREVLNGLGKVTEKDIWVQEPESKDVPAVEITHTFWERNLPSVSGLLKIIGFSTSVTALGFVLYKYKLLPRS
Procedure: Recombinant human MAO-A. hrMAO-A and MAO control were purchased from XenoTech. The reaction mixture was prepared as described in Table 11. The test compound was added into the reaction mixture at a final concentration of 1 μM. The positive control kynuramine (25 μM) was run simultaneously with the test compound in a separate reaction. The reaction mixture (without test compounds or kynuramine) was equilibrated in a shaking water bath at 37° C. for 5 minutes. The reaction was initiated by the addition of the test compound or kynuramine, and the mixture was incubated in a shaking water bath at 37° C. Aliquots (150 μL) of the test compound reaction mixture were withdrawn at 0, 5, 10, 20, 30, 60, and for some assays at 120 minutes. Aliquots (150 μL) of the positive control reaction mixture were withdrawn at 0 and 30 minutes. Test compound and kynuramine samples were immediately combined with 150 μL of ice-cold 100% acetonitrile containing 0.1% formic acid and internal standard (0.2 μM metoprolol) to terminate the reaction. The samples were then mixed and centrifuged to precipitate proteins. All samples were assayed by LC-MS/MS. The peak area response ratio (PARR) of analyte to internal standard at each time point was compared to the PARR at time 0 to determine the percent remaining at each time point. Half-lives were calculated using GraphPad software, fitting to a single-phase exponential decay equation.
In a different series of reactions using human MAO-A and MAO-B, a 10 mM stock solution of the test compound was prepared in DMSO. From this stock solution, an intermediate stock solution of 1 mM was prepared by diluting the compound in DMSO and from this intermediate stock solution, a working solution of 0.30 mM was prepared by diluting the compound in ACN:Water (50:50) as cocktail of 2 compounds (30 μL each compound in 40 μL diluent for 100 μL). Following this, a master mix of 0.1 M potassium phosphate buffer and test compound mixture i.e., the non-deuterated and the deuterated analog, were prepared to achieve final drug concentration of 1 μM (0.2% DMSO) for the required number of reactions. The aforementioned master mix was pre-incubated at 37° C. for 5 min. To this master mix, MAO-A (final protein conc. 0.1 mg/mL; Corning Cat #456283; Lot #1173003) or MAO-B (final protein conc. 0.1 mg/mL; Corning Cat #456284; Lot #0318001) was added to initiate the reaction. The samples were then incubated at 37° C. for the desired time points. At each time point (0, 5, 15, 30, 45, 60), 40 μL of the samples were withdrawn and reactions were stopped using 200 μL chilled ACN containing 0.1% formic acid and internal standard Carbamazepine (10 ng/mL). The samples were centrifuged, and the supernatant was analyzed by LC-MS/MS. The percent compound remaining at each time point was calculated with respect to that of the 0 min sample. The data were then analyzed to calculate half-life and intrinsic clearance (CLint). Blank samples were prepared using DMSO (without the test compound).

[1] = molecular target: Norepinephrine transporter (Homo sapiens, UniProt P23975); assay: Norepinephrine transporter uptake (h); format: cell-based
Sequence of Norepinephrine transporter (P23975 whole entry): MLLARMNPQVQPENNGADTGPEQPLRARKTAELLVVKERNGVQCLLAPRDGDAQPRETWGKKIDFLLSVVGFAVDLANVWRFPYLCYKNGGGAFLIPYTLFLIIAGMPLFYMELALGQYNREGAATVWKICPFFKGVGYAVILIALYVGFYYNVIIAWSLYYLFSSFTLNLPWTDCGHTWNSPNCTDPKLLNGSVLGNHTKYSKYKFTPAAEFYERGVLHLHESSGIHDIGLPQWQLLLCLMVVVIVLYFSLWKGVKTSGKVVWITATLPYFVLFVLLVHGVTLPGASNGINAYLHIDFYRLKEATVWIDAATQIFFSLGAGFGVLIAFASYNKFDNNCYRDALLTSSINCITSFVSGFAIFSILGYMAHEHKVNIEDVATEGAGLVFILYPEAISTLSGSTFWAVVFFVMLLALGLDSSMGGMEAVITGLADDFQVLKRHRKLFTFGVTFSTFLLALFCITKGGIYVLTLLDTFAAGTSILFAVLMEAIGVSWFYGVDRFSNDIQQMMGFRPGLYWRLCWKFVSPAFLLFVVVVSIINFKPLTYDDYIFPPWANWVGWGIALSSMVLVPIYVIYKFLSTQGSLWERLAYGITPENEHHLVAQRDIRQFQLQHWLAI

[2] = molecular target: T3, norepinephrine transporter (h) (Homo sapiens, UniProt P23975); assay: norepinephrine transporter (h) binding, [3H]nisoxetine; conditions: at 10 μM; table calls these values “No Binding”
T3 construct: expressed in transfected cells; host or cells: CHO cells
T3 sequence (P23975 whole entry): as above

5-HT2A (h) = molecular target: T4, 5-HT2A (h) (Homo sapiens, UniProt P28223); assay: 5-HT2A (h) agonist effect, IP1 HTRF functional assay; format: cell-based; conditions: for agonist efficacy at 5-HT2A, in words: EMAX relative to 5-HT
T4 construct: expressed in transfected cells; host or cells: HEK-293 cells
T4 sequence (P28223 whole entry): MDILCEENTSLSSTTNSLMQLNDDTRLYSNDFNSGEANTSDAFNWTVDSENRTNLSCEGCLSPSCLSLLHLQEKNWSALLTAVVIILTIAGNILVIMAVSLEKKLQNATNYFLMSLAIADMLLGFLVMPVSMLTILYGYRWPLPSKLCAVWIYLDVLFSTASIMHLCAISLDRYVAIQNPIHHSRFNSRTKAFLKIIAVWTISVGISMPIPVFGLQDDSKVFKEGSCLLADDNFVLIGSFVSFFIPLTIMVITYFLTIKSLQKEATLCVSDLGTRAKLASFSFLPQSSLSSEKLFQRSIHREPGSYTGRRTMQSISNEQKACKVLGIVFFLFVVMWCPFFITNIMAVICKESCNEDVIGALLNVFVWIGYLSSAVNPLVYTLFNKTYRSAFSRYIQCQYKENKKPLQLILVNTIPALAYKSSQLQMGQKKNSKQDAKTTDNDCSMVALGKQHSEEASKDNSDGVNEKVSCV

Serotonin transporter = molecular target: T5, Serotonin transporter (Rattus norvegicus, UniProt P31652); assay: Serotonin transporter uptake, rat brain synaptosomes; format: biochemical; conditions: for selectivity for blocking 5-HT reuptake relative to NE and DA, in words / selectivity for inhibiting SERT relative to DAT and NET: uptake inhibition
T5 construct: from tissue
T5 sequence (P31652 whole entry): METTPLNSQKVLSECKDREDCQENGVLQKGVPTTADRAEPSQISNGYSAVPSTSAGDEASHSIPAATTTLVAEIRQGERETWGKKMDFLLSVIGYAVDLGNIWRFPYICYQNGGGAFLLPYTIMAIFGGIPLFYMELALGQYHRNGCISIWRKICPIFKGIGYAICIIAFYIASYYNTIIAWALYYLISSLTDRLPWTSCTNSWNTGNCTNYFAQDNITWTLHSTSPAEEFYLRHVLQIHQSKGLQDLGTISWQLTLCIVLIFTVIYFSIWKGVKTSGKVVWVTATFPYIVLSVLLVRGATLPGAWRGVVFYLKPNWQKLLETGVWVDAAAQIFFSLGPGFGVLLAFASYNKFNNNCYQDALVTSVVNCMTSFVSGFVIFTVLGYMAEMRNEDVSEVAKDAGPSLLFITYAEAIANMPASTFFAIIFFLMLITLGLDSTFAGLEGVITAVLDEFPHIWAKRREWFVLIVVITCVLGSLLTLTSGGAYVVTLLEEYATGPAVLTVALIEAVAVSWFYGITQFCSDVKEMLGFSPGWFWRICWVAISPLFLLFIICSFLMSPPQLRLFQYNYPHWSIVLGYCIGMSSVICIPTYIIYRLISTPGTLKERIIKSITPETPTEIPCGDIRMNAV

5-HT2B (h) = molecular target: T6, 5-HT2B (h) (Homo sapiens, UniProt P41595); assay: 5-HT2B (h) agonist radioligand [125I](±)DOI binding; conditions: at 10 μM
T6 construct: expressed in transfected cells; host or cells: CHO cells
T6 sequence (P41595 whole entry): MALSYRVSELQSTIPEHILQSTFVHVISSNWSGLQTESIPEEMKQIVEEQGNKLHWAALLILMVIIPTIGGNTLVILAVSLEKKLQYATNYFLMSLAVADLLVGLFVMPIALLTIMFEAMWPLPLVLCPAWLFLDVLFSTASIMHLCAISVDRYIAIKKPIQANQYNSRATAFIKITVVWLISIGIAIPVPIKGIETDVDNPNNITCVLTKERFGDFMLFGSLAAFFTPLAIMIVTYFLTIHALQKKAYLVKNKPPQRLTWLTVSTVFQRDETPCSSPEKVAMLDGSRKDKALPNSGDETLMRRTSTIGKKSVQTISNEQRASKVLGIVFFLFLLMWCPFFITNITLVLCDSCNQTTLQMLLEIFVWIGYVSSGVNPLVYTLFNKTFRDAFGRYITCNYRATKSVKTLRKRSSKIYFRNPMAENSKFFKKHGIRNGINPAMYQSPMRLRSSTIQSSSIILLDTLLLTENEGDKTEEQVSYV
Procedure: (§1) Samples were then analyzed as described above.

5-HT2C (h) = molecular target: T7, 5-HT2C (h) (Homo sapiens, UniProt P28335); assay: 5-HT2C (h) agonist radioligand [125I](±)DOI binding; conditions: at 10 μM
T7 construct: expressed in transfected cells; host or cells: HEK-293 cells
T7 sequence (P28335 33-458): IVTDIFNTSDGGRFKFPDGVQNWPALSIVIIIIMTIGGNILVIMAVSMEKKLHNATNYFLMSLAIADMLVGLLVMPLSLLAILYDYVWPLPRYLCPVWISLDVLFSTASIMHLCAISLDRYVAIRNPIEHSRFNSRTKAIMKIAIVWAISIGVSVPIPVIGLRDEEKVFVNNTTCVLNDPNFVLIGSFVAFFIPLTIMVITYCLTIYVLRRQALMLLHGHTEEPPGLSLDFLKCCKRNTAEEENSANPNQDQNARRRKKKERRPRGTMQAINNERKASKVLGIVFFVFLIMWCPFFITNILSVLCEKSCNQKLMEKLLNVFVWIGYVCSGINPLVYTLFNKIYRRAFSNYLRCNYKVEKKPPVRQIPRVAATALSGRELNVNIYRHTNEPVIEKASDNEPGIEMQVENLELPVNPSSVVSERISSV
Procedure: as §1

[3] = human recombinant MAO-A, test compound 1 μM, read-out: MAO-A t1/2

Sequence of Dopamine transporter (Q01959 whole entry): as the sequence (Q01959 whole entry) above

Compound: NCCc1ccc2c(c1)OCS2 [II-14, 2-(benzo[d][1,3]oxathiol-6-yl)ethan-1-amine]
- IC50 (Dopamine transporter; Function DAT Estimated IC50, blocking reuptake of DA): ~10 µM
- inhibition at 100 µM (Dopamine transporter; at 100 μM, read-out: Function DAT, inhibition of DAT): 95%
- Function DAT (blocking reuptake of DA), efficacy in words (Dopamine transporter; tested at 1, 10, 100 μM): Near full efficacy,
- efficacy for blocking DA uptake through DAT, in words (Dopamine transporter; tested at 1, 10, 100 μM): full efficacy
- Binding DAT (antagonist radioligand), % competition (dopamine transporter (h)): 26% competition
- half-life at 1 µM (MAO-A; 1 μM test compound, read-out: half-life, MAO-A metabolism): ≤ 8 min
- half-life at 1 µM (MAO-A; [3]): 4.09 min
- IC50 [1]: ~5 µM
- inhibition at 100 µM ([1]; at 100 μM, read-out: Function NET, inhibition of NET): 92.9%
- Function NET (blocking reuptake of NE), efficacy in words ([1]; tested at 1, 10, 100 μM): Near full efficacy,
- efficacy for blocking NE uptake through NET, in words ([1]; tested at 1, 10, 100 μM): full efficacy
- Binding NET (antagonist radioligand), % competition [2]: 40.5% competition
- EC50 (5-HT2A (h)): 3 µM
- Emax at 100 µM (5-HT2A (h); at 100 μM, relative to 5-HT, read-out: Function 5-HT2A EMAX): 87.3%
- Function 5-HT2A (IP-1, efficacy relative to 5-HT), agonist type (5-HT2A (h); tested at 1, 3, 10, 100 μM): Nearly full agonist -
- agonist efficacy at 5-HT2A, in words (5-HT2A (h); tested at 1, 3, 10, 100 μM): nearly full or full agonist; also recorded: full agonists
- IC50 (Serotonin transporter): ~0.5 µM
- Function SERT, inhibition of SERT (Serotonin transporter; from 3 to 100 μM): 98.5-107.9%,
- Function SERT (blocking reuptake of 5-HT), efficacy in words (Serotonin transporter; tested at 1, 3, 10, 100 μM): Full efficacy,
- efficacy for blocking 5-HT uptake through SERT, in words (Serotonin transporter; tested at 1, 3, 10, 100 μM): full efficacy
- selectivity for blocking 5-HT reuptake relative to NE and DA, in words (Serotonin transporter): selectivity (higher potency) for blocking 5-HT reuptake relative to NE and DA
- selectivity for inhibiting SERT relative to DAT and NET (Serotonin transporter): ~5 fold
- Binding 5-HT2B (agonist radioligand), % competition (5-HT2B (h)): 100.3% competition
- Binding 5-HT2C (agonist radioligand), % competition (5-HT2C (h)): 94.4% competition

Compound: CC(N)Cc1ccc2c(c1)OCS2 (centres unmarked) [II-16, 1-(benzo[d][1,3]oxathiol-6-yl)propan-2-amine]
- efficacy for blocking DA uptake through DAT, in words (Dopamine transporter; tested at 1, 10, 100 μM): full efficacy
- half-life at 1 µM (MAO-A; [3]): > 120 min
- stability in the presence of MAO-A (MAO-A; result in words): stable
- efficacy for blocking NE uptake through NET, in words ([1]; tested at 1, 10, 100 μM): full efficacy
- agonist efficacy at 5-HT2A, in words (5-HT2A (h); tested at 1, 3, 10, 100 μM): nearly full or full agonist; also recorded: full agonists
- efficacy for blocking 5-HT uptake through SERT, in words (Serotonin transporter; tested at 1, 3, 10, 100 μM): full efficacy
- selectivity for blocking 5-HT reuptake relative to NE and DA, in words (Serotonin transporter): selectivity (higher potency) for blocking 5-HT reuptake relative to NE and DA
- selectivity for inhibiting SERT relative to DAT and NET (Serotonin transporter): ~5 fold

Source: US20250145566A1, “PHENETHYLAMINE DERIVATIVES, COMPOSITIONS, AND METHODS OF USE” (Cybin IRL Limited, priority 2022, published 2025)
